Data published in patent US20100261693A1, “METHOD FOR TREATING CUSHING'S SYNDROME” (priority 2007, published 2010).

Experiments:
[1] = test system: Cushing's syndrome secondary to ectopic ACTH secretion; assay: Case-study: mifepristone in a patient with Cushing's syndrome secondary to ectopic ACTH secretion; format: in vivo, human; settings: person
Text: A subject, first presented with clinical symptoms of Cushing's syndrome in August 2006, and they were diagnosed with Cushing's syndrome secondary to ectopic ACTH secretion in March 2007.

[2] = test system: Cushing's syndrome (ectopic ACTH secretion); settings: cited from earlier work
[3] = 200 mg three times a day, after 2 weeks of treatment

CC#C[C@]1(O)CC[C@H]2[C@@H]3CCC4=CC(=O)CCC4=C3[C@@H](c3ccc(N(C)C)cc3)C[C@@]21C [mifepristone]
concomitant insulin treatment [1, 3]: insulin was stopped
dose of concomitant metformin [1, 3]: decreased by two
general clinical consequences of hypercortisolism [1, 3]: rapidly improved
glycemia [1, 3]: returned to normal
dose of enalapril previously administered for hypertension ([1]; mifepristone 200 mg three times a day): decreased from 30 mg to 10 mg
outcome of fractioned dosage ([2]; fractioned dosage, young child): successfully given
efficacy in clinical trials ([2]; high-dose mifepristone once a day): some efficacy
